Series [1] addresses CDK9/Cyclin K (Homo sapiens) (UniProt P50750+O75909). The note with it: Sf9.
The subject of the next series is MDA-MB-231. As to the kind of experiment: Antiproliferative activity against human MDA-MB-231 cells assessed as inhibition of cell proliferation measured after 48 hrs by CCK8 assay. It counts as functional, cell-based. The note with it: MDA-MB-231, 48 h.
For another series, the target named is CDK6/cyclin D3 (Homo sapiens, UniProt Q00534). Also on record: species or system Sf9.
The target of the next series is CDK2/Cyclin A2 (Homo sapiens, UniProt P24941). Details: species or system Sf9.
Series [2] can be described thus: Cytotoxicity against human L02 cells assessed as inhibition of cell proliferation measured after 48 hrs by CCK8 assay. It is filed as cell-based.
A further series relates to MCF7. Nature of the series: Antiproliferative activity against human MCF7 cells assessed as inhibition of cell proliferation measured after 48 hrs by CCK8 assay. It counts as functional, cell-based. To be noted: MCF7, 48 h.
For another series, the system named is Jurkat. Nature of the series: Antiproliferative activity against human Jurkat cells assessed as inhibition of cell proliferation measured after 48 hrs by CCK8 assay. It counts as functional, cell-based.
For the next series, the target named is CDK9/Cyclin K (Homo sapiens, UniProt P50750). Nature of the series: biochemical.

Activity calls are given as the source filed them. No cut-off for these calls is given here. Some results are limits rather than exact numbers.

Chain of CDK6/cyclin D3 (P30281 whole entry): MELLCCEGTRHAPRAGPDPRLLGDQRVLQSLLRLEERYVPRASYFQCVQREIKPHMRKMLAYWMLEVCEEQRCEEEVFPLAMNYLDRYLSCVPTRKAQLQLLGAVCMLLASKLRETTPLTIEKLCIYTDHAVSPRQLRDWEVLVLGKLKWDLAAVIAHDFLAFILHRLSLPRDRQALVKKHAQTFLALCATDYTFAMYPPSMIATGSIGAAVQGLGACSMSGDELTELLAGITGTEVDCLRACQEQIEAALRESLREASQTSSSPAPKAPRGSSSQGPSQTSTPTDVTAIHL
Chain of CDK6/cyclin D3 (Q00534 whole entry): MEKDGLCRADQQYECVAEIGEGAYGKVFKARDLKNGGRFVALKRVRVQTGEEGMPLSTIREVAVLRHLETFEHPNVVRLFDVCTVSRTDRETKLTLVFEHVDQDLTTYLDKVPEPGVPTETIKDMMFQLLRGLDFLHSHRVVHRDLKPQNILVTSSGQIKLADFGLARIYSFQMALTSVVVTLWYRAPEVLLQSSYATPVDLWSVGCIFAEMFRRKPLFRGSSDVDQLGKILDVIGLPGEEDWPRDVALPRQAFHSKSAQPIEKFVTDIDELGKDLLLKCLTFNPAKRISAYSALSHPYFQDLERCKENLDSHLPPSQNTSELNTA
Chain of CDK9/Cyclin K (P50750 whole entry): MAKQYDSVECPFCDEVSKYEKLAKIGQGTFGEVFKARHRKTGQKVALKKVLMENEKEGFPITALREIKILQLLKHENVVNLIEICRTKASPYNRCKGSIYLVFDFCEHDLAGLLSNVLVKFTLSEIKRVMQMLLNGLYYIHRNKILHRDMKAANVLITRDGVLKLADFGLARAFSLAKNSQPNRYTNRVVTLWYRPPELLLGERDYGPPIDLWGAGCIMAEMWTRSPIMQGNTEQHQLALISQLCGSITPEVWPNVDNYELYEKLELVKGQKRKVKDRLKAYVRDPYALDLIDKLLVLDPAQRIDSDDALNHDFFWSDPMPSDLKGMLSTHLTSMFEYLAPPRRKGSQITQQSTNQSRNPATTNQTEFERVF
Chain of CDK9/Cyclin K (O75909 whole entry, further chain): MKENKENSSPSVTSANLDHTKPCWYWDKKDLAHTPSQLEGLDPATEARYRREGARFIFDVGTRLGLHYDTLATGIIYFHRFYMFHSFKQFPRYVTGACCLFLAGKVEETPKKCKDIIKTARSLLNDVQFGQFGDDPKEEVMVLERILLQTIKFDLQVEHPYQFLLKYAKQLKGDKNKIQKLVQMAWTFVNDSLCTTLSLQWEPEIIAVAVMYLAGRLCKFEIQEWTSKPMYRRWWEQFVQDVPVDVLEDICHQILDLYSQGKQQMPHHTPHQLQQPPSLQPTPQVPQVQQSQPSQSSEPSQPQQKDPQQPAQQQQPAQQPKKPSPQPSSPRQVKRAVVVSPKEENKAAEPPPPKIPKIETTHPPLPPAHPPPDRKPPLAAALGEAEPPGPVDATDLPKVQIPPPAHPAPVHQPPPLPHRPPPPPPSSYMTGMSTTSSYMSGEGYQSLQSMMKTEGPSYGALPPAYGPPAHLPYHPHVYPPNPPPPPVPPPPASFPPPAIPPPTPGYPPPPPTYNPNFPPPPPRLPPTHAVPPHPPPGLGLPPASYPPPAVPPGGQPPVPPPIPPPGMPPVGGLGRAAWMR

For `CN1CCN(c2ccc(Nc3ncc(Cl)c(Nc4ccc(C(F)(F)F)cc4)n3)nc2)CC1`, in series [1], the inhibition entry was “inactive”.
For the compound `CN1CCN(c2ccc(Nc3ncc(Cl)c(Nc4ccc(F)cc4)n3)nc2)CC1`, the inhibition entry in series [1] was “inactive”.
On the same count and under the same terms, with `CN1CCN(c2ccc(Nc3ncc(Cl)c(Nc4cccc(OC(F)(F)F)c4)n3)nc2)CC1` the entry was “inactive”.
Same read-out and setting: under `CN1CCN(c2ccc(Nc3ncc(Cl)c(Nc4cccc(F)c4)n3)nc2)CC1` stands “inactive”.
Consider `CN1CCN(c2ccc(Nc3ncc(Cl)c(NCc4ccc(F)cc4)n3)nc2)CC1`, for which the GI50 is over 100 µM with MDA-MB-231, 19.3 µM in the series on MCF7 and over 100 µM with Jurkat. Besides, the IC50 at CDK6/cyclin D3, against CDK2/Cyclin A2 and against CDK9/Cyclin K was over 10 µM in each case. Besides, the GI50 at 48 h in series [2] turned out to be 39.7 µM.
As for `CN1CCN(c2ccc(Nc3ncc(Cl)c(Nc4ccc(OC(F)(F)F)cc4)n3)nc2)CC1`, the inhibition result in series [1] is “inactive”.
Consider `Cc1ccccc1Nc1nc(NC2CC2)ncc1Cl`, for which the 50% growth inhibitory concentration (GI50) with MDA-MB-231, in the series on MCF7 and with Jurkat was over 100 µM each time. Further, the IC50 against CDK6/cyclin D3, on CDK2/Cyclin A2 and against CDK9/Cyclin K was over 10 µM throughout. Further, in series [2], the GI50 at 48 h was over 100 µM.
Consider `Cc1ccccc1Nc1nc(Nc2ccc(N3CCCCC3)cc2)ncc1Cl`, for which the GI50 in the series on MDA-MB-231 was 19.9 µM; with MCF7, over 100 µM; with Jurkat it was over 100 µM. Besides, the IC50 was over 10 µM against CDK6/cyclin D3, 3.69 µM against CDK2/Cyclin A2 and over 10 µM on CDK9/Cyclin K. For the same compound, the GI50 at 48 h in series [2] turned out to be 5.69 µM.
On to `COc1cccc(CNc2nc(Nc3ccc(N4CCN(C)CC4)cn3)ncc2Cl)c1`, for which the GI50 in the series with MDA-MB-231 was determined as 20.3 µM; in the series on MCF7, 19.5 µM; in the series on Jurkat it was 73.4 µM. For the same compound, the IC50 on CDK6/cyclin D3 is 1.6 µM; against CDK2/Cyclin A2, over 10 µM; against CDK9/Cyclin K, 3.29 µM. Besides, the GI50 at 48 h in series [2] is 16.2 µM.
`CN1CCN(c2ccc(Nc3ncc(Cl)c(NCCc4ccccc4)n3)nc2)CC1`: the GI50 is over 100 µM in the series with MDA-MB-231, 11.8 µM in the series on MCF7 and over 100 µM in the series with Jurkat. Besides, the IC50 at CDK6/cyclin D3, against CDK2/Cyclin A2 and against CDK9/Cyclin K was over 10 µM in each case. Besides, the GI50 at 48 h in series [2] worked out at 14.9 µM.
Take `Cc1ccccc1Nc1nc(Nc2ccccc2)ncc1Cl`: the GI50 with MDA-MB-231, with MCF7 and in the series on Jurkat was over 100 µM throughout. Besides, the IC50 against CDK6/cyclin D3, against CDK2/Cyclin A2 and against CDK9/Cyclin K was over 10 µM each time. Besides, the GI50 at 48 h in series [2] was over 100 µM.
As to `CCN1CCN(c2ccc(Nc3ncc(Cl)c(Nc4ccccc4C)n3)cc2)CC1`, the GI50 in the series with MDA-MB-231 is 3.04 µM; in the series with MCF7, 3.16 µM; in the series on Jurkat, 2.06 µM. Also, the IC50 on CDK6/cyclin D3 was determined as 0.114 µM; against CDK2/Cyclin A2 it was 0.718 µM; on CDK9/Cyclin K, 0.751 µM. Besides, the GI50 at 48 h in series [2] stood at 0.97 µM.
Take `CN1CCN(c2ccc(Nc3ncc(Cl)c(NCc4ccccc4)n3)nc2)CC1`: the GI50 was 24.8 µM in the series with MDA-MB-231, 17.3 µM in the series with MCF7 and over 100 µM in the series with Jurkat. For the same compound, the IC50 at CDK6/cyclin D3, on CDK2/Cyclin A2 and against CDK9/Cyclin K was over 10 µM in each case. Besides, the GI50 at 48 h in series [2] was 20.3 µM.
Consider `Cc1ccccc1Nc1nc(NCc2ccco2)ncc1Cl`, for which the GI50 with MDA-MB-231, in the series on MCF7 and with Jurkat was over 100 µM in each case. Also, the IC50 on CDK6/cyclin D3, on CDK2/Cyclin A2 and at CDK9/Cyclin K was over 10 µM each time. In addition, the GI50 at 48 h in series [2] was over 100 µM.
Take `Cc1ccccc1Nc1nc(NCCc2ccccc2)ncc1Cl`: the GI50 with MDA-MB-231, in the series on MCF7 and in the series with Jurkat was over 100 µM in each case. In addition, the IC50 on CDK6/cyclin D3, against CDK2/Cyclin A2 and on CDK9/Cyclin K was over 10 µM in each case. Further, the GI50 at 48 h in series [2] was over 100 µM.
Consider `Cc1ccccc1Nc1nc(NCCc2ccccn2)ncc1Cl`, for which the GI50 with MDA-MB-231, with MCF7 and with Jurkat was over 100 µM each time. Moreover, the IC50 against CDK6/cyclin D3, against CDK2/Cyclin A2 and against CDK9/Cyclin K was over 10 µM throughout. In addition, the GI50 at 48 h in series [2] was over 100 µM.
Turning to `Cc1ccccc1Nc1nc(Nc2ccc(N3CCN(C(=O)OC(C)(C)C)CC3)cc2)ncc1Cl`, the GI50 in the series with MDA-MB-231 worked out at 3.26 µM; with MCF7, 2.25 µM; in the series on Jurkat, 5.12 µM. Also, the IC50 at CDK6/cyclin D3 is 0.116 µM; against CDK2/Cyclin A2, 0.192 µM; at CDK9/Cyclin K it was 0.176 µM. The GI50 at 48 h in series [2] came to 1.75 µM.
Regarding `COc1ccc(CNc2nc(Nc3ccc(N4CCN(C)CC4)cn3)ncc2Cl)cc1`, the GI50 in the series on MDA-MB-231 was found to be 14.9 µM; in the series on MCF7, 17.3 µM; in the series with Jurkat, 12.9 µM. In addition, the figures for the IC50 at CDK6/cyclin D3, at CDK2/Cyclin A2 and at CDK9/Cyclin K were 0.64 µM, over 10 µM and over 10 µM, respectively. For the same compound, in series [2], the GI50 at 48 h turned out to be 12.9 µM.
As to `COc1ccccc1CNc1nc(Nc2ccc(N3CCN(C)CC3)cn2)ncc1Cl`, the GI50 in the series with MDA-MB-231 is 29.3 µM; in the series on MCF7 it was over 100 µM; with Jurkat it was 10.8 µM. For the same compound, the IC50 on CDK6/cyclin D3, against CDK2/Cyclin A2 and on CDK9/Cyclin K was over 10 µM throughout. Besides, the GI50 at 48 h in series [2] is 25.5 µM.
Turning to `CN1CCN(c2ccc(Nc3ncc(Cl)c(Nc4ccc(F)c(C(F)(F)F)c4)n3)nc2)CC1`, the inhibition entry in series [1] was “inactive”.
Turning to `Cc1ccccc1Nc1nc(Nc2ccccn2)ncc1Cl`, the GI50 was found to be 11.2 µM in the series with MDA-MB-231, 31.4 µM in the series with MCF7 and 20.1 µM with Jurkat. For the same compound, the IC50 is 2.76 µM against CDK6/cyclin D3, 0.643 µM against CDK2/Cyclin A2 and 8.11 to 8.12 µM against CDK9/Cyclin K. Also, the GI50 at 48 h in series [2] was found to be 6.15 µM.
Consider `Cc1ccccc1Nc1nc(Nc2ccc(N3CCCN(C)CC3)cc2)ncc1Cl`, for which the results for the GI50 in the series with MDA-MB-231, with MCF7 and in the series with Jurkat were 6.39 µM, 4.29 µM and 11.3 µM, respectively. In addition, the IC50 was determined as 0.536 µM against CDK6/cyclin D3, 1.59 µM against CDK2/Cyclin A2 and 0.88 µM at CDK9/Cyclin K. Also, the GI50 at 48 h in series [2] turned out to be 1.24 µM.
Consider `Cc1ccccc1Nc1nc(NCc2ccncc2)ncc1Cl`, for which the GI50 in the series with MDA-MB-231, in the series with MCF7 and in the series on Jurkat was over 100 µM in each case. The IC50 against CDK6/cyclin D3, on CDK2/Cyclin A2 and at CDK9/Cyclin K was over 10 µM throughout. In addition, the GI50 at 48 h in series [2] was over 100 µM.
Regarding `CCN1CCN(c2ccc(Nc3ncc(Cl)c(Nc4ccccc4C)n3)nc2)CC1`, the GI50 in the series on MDA-MB-231, with MCF7 and with Jurkat was over 100 µM each time. Besides, the figures for the IC50 on CDK6/cyclin D3, against CDK2/Cyclin A2 and against CDK9/Cyclin K were over 10 µM, 9.18 µM and over 10 µM, respectively. Further, the GI50 at 48 h in series [2] is over 100 µM.
Take `Cc1ccccc1Nc1nc(Nc2ccc(N3CCOCC3)cc2)ncc1Cl`: the values for the GI50 in the series on MDA-MB-231, in the series on MCF7 and with Jurkat were 11.3 µM, over 100 µM and 8.36 µM, respectively. Besides, the IC50 against CDK6/cyclin D3 is 1.69 µM; on CDK2/Cyclin A2, 2.68 µM; against CDK9/Cyclin K, 1.12 µM. Further, the GI50 at 48 h in series [2] stood at 5.37 µM.
In the case of `Cc1ccccc1Nc1nc(Nc2ccc(N3CCNCC3)cn2)ncc1Cl`, the results for the GI50 in the series with MDA-MB-231, in the series with MCF7 and with Jurkat were 5.06 µM, 3.41 µM and 7.87 µM, respectively. Besides, the IC50 against CDK6/cyclin D3 is 0.042 µM; at CDK2/Cyclin A2, 2.06 µM; against CDK9/Cyclin K, 0.114 µM. Also, in series [2], the GI50 at 48 h turned out to be 1.85 µM.

These data come from ChEMBL document CHEMBL4602695, “Discovery and SARs of 5-Chloro-N4-phenyl-N2-(pyridin-2-yl)pyrimidine-2,4-diamine Derivatives as Oral Available and Dual CDK 6 and 9 Inhibitors with Potent Antitumor Activity” (J Med Chem, 2020).
